Here are results for ten compounds from patent publication US4447610A, “10-Substituted 5-cyanomethylene-dibenzo[A,B]-cycloheptenes, their preparations, and therapeutic agents containing these compounds” (BASF Aktiengesellschaft, priority 1980, dated 1984).

Data set [1] concerns orientation hypermotility. Nature of the data set: Sedative action: decrease in orientation hypermotility of mice. The class given is in vivo, female NMRI mice. Conditions: for ED50: Mus musculus, 0.5 h, mice, oral, 30 min after administration, measured for 30 min, read-out: Sedative action ED 50%; for sedative-hypnotic effects (in words): compared with clozapine and perlapine; for Sedative action R.A. (relative activity): clozapine = 1.00. How it is done:
4-8 groups of 3 female NMRI mice are given the compound orally. The orientation hypermotility induced by a new environment is determined photoelectrically, 30 minutes after administration of the compound, for a period of 30 minutes.
The ED50% is the dose which produces a decrease in orientation hypermotility by 50%, compared to control animals treated with placebo.

For data set [2], the system named is tonic extensor reflex on the rabbit gastrocnemius. The data set can be described thus: Muscle-relaxing action: tonic extensor reflex on the rabbit gastrocnemius. Conditions: for muscle-relaxing properties (in words): rabbit, in vivo; for Muscle relaxation R.A. (relative activity): clozapine = 1.00. The class given is in vivo. An excerpt:
2. Muscle-relaxing action The measurement is based on quantifying the tonic extensor reflex on the rabbit gastrocnemius (Teschendorf et al., Arch. Pharmacol. exp. Path. 266 (1970), 462). The rabbit is fixed in a special apparatus which permits bending the paw at the talocalcanean joint in a defined and reproducible manner. As a result of this bending, a tonic extensor reflex is triggered in the […]. The electrical activity of the muscle during contraction is registered and the individual pulses are counted. The extension (duration 5 s) is repeated at intervals of one minute. After a constant number of pulses has been reached (constituting the control value), the test substance is administered intravenously. The number of pulses after administration is related to the previous value. For each dose investigated, 4-6 animals are used. The ED 50% is the dose which reduces the muscle activity to half, based on the initial value.

In data set [3] the test system is tryptamine-induced clonic front paw movements. The data set can be described thus: Antitryptamine action: inhibition of tryptamine-induced front paw movements. Format: in vivo, rats. The note with it: for ED50: Rattus norvegicus, ip, rats, intraperitoneal, 30 min before tryptamine.HCl 16 mg/kg i.v., read-out: Antitryptamine action ED 50%; for Antitryptamine action R.A. (relative activity): clozapine = 1.00. How it is done:
3. Antitryptamine action Tryptamine.HCl (16 mg/kg administered intravenously) regularly causes the following symptoms in rats: clonic front paw movements, back-arching and retropulsion, as well as mandibular movements (Tedeschi et al., J. Pharmacol. Exp. Ther. 126 (1959), 223). The test substances are administered intraperitoneally 30 minutes before the tryptamine. […] The mean inhibitory dose (ED 50%) is determined, by means of Probit analysis, as the dose which prevents the symptom in half the animals.

Another data set concerns death from physostigmine. Nature of the data set: Anticholinergic action: protection against death from physostigmine (antiphysostigmine test). Format: in vivo, female NMRI mice. Conditions: Mus musculus; mice, oral, 30 min before physostigmine 0.825 mg/kg s.c.; read-out: Anticholinergic action ED 50%. The protocol: 4. Anticholinergic action
Groups of 10 female NMRI mice are given physostigmine subcutaneously, at a lethal dose (0.825 mg/kg). The test substances are administered orally 30 minutes before the administration of physostigmine.
The ED 50% is determined as the dose of compound which protects 50% of the animals against death from physostigmine.

The next data set can be described thus: Acute toxicity. Conditions: mouse, in vivo, ip; mice, intraperitoneal; read-out: Toxicity LD 50. How it is done: Groups of 5-10 female NMRI mice are given the compounds intraperitoneally. The LD 50 is determined as the dose after which 50% of the treated animals die.

Consider `CN1CCN(C2=Cc3cc(Cl)ccc3/C(=C/C#N)c3ccccc32)CC1` [Example 4a, cis-5-cyanomethylene-2-chloro-10-(4-methyl-piperazin-1-yl)-dibenzo[a,d]-cycloheptene], for which, in data set [1], the ED50 was found to be 0.44 mg/kg, the “sedative-hypnotic effects (in words)” value is “particularly pronounced” and the “Sedative action R.A. (relative activity)” value came to 10.77. For the same compound, in data set [2], the “muscle-relaxing properties (in words)” value was “particularly pronounced” and the “Muscle relaxation R.A. (relative activity)” value is listed as 10.00. Moreover, in data set [3], the ED50 was 0.7 mg/kg and the “Antitryptamine action R.A. (relative activity)” value came out at 7.14. For the same compound, in data set [3] (compared with reference substances), the “antimonaminergic action, tryptamine antagonism (in words)” value is reported as “markedly more pronounced”. The ED50 in the data set with death from physostigmine is over 21.5 mg/kg.
On to `CN1CCN(C2=Nc3cc(Cl)ccc3Nc3ccccc32)CC1` [Clozapine, reference compound], for which the “Sedative action R.A. (relative activity)” value in data set [1] worked out at 1.00. Moreover, the ED50 was determined as 5 mg/kg in data set [3] and 14.1 mg/kg in the data set with death from physostigmine. Also, the “Antitryptamine action R.A. (relative activity)” value in data set [3] stood at 1.00.
In the case of `CCN1CCN(C2=Cc3ccccc3/C(=C/C#N)c3ccccc32)CC1` [Example 5a, cis-5-cyanomethylene-10-(4-ethyl-piperazin-1-yl)-dibenzo[a,d]-cycloheptene], the ED50 was 1 mg/kg in data set [1], 11.2 mg/kg in data set [3] and over 21.5 mg/kg in the data set on death from physostigmine. Further, in data set [1], the “Sedative action R.A. (relative activity)” value is recorded as 4.74. The “Muscle relaxation R.A. (relative activity)” value in data set [2] was 4.60. Also, the “Antitryptamine action R.A. (relative activity)” value in data set [3] stood at 0.45. The LD50 in “Acute toxicity” was over 100 mg/kg.
For `C[N+]1([O-])CCN(C2=Cc3ccccc3C(=CC#N)c3ccccc32)CC1` (mixture of isomers) [Example 12, cis,trans-5-Cyanomethylene-10-(4-methyl-4-oxy-piperazin-1-yl)-dibenzo[a,d]-cycloheptene.21/2 H2 O], in data set [1], the ED50 was 1.4 mg/kg and the “Sedative action R.A. (relative activity)” value amounted to 3.39. The “Muscle relaxation R.A. (relative activity)” value in data set [2] stood at 0.46. Moreover, in data set [3], the ED50 worked out at 12.5 mg/kg and the “Antitryptamine action R.A. (relative activity)” value was determined as 0.40. In the data set with death from physostigmine, the ED50 is over 21.5 mg/kg. Moreover, the LD50 in the data set “Acute toxicity” was over 100 mg/kg.
For `CN1CCN(C2=Cc3ccccc3/C(=C/C#N)c3ccccc32)CC1` [Example 1a], in data set [1], the ED50 came out at 0.8 mg/kg, the “sedative-hypnotic effects (in words)” value is given as “particularly pronounced” and the “Sedative action R.A. (relative activity)” value was determined as 5.92. In addition, in data set [2], the “muscle-relaxing properties (in words)” value was “particularly pronounced” and the “Muscle relaxation R.A. (relative activity)” value came out at 54.12. Besides, in data set [3], the ED50 stood at 8.6 mg/kg and the “Antitryptamine action R.A. (relative activity)” value is given as 0.58. In addition, the ED50 with death from physostigmine is over 10 mg/kg.
Consider `CN1CCN(C2=Nc3ccccc3Cc3ccccc32)CC1` [Perlapine, reference compound], for which, in data set [3], the ED50 came out at 4.1 mg/kg and the “Antitryptamine action R.A. (relative activity)” value was 1.22. Moreover, the ED50 in the data set with death from physostigmine was over 21.5 mg/kg.
As for `N#CC=C1c2ccccc2C=C(N2CCN(CCO)CC2)c2ccccc21` (mixture of isomers) [Example 7, cis,trans-5-Cyanomethylene-10-(N-β-hydroxyethyl-piperazin-1-yl)-dibenzo[a,d]-cycloheptene.1/2 H2 O], the values for the ED50 (in data set [1]; in the data set with death from physostigmine) were 0.97 mg/kg and over 21.5 mg/kg, respectively. In addition, in data set [1], the “Sedative action R.A. (relative activity)” value is reported as 4.89. In addition, the “Muscle relaxation R.A. (relative activity)” value in data set [2] is 3.54. Also, the LD50 in the data set “Acute toxicity” is over 100 mg/kg.
With `CN1CCN(C2=Cc3ccccc3C(=CC#N)c3ccccc32)CC1` [Example 1, cis- and trans-5-Cyanomethylene-10-(4-methyl-piperazin-1-yl)-dibenzo[a,d]-cycloheptene], the figures for the ED50 (in data set [1]; in the data set with death from physostigmine) were 0.96 mg/kg and over 10 mg/kg, respectively. The “Sedative action R.A. (relative activity)” value in data set [1] came to 4.94. For the same compound, the “Muscle relaxation R.A. (relative activity)” value in data set [2] stood at 7.19. In “Acute toxicity”, the LD50 came to 324 mg/kg.
In the case of `CN1CCN(C2=Cc3cc(Cl)ccc3C(=CC#N)c3ccccc32)CC1` [Example 4, cis- and trans-2-Chloro-5-cyanomethylene-10-(4-methylpiperazin-1-yl)-dibenzo[a,d]-cycloheptene], in data set [1], the ED50 came to 2 mg/kg and the “Sedative action R.A. (relative activity)” value came out at 2.37. Besides, the “Muscle relaxation R.A. (relative activity)” value in data set [2] turned out to be 10.00. Also, in the data set on death from physostigmine, the ED50 is over 21.5 mg/kg.
In the case of `CCN1CCN(C2=Cc3ccccc3C(=CC#N)c3ccccc32)CC1` (mixture of isomers) [Example 5, cis,trans-5-Cyanomethylene-10-(4-ethyl-piperazin-1-yl)-dibenzo[a,d]-cycloheptene], in data set [1], the ED50 came to 1.38 mg/kg and the “Sedative action R.A. (relative activity)” value is recorded as 3.43. Moreover, in data set [2], the “Muscle relaxation R.A. (relative activity)” value worked out at 3.54. Besides, in data set [3], the ED50 amounted to 18.6 mg/kg and the “Antitryptamine action R.A. (relative activity)” value is on record as 0.27. The ED50 in the data set on death from physostigmine was over 21.5 mg/kg. The LD50 in “Acute toxicity” is 287 mg/kg.
